# Patent US11446270B2, “Leonurine crystal and use thereof in preparation of insulin sensitizer, hypoglycemic drug and lipid-lowering drug” (ZHUHAI HENGQIN NEW DISTRICT ZHONGZHU ZHENGTAI MEDICAL …, priority 2017, dated 2022)
# Entries after “also recorded” stand apart in the source; their conditions may differ.
# Assays:
# Sprague-Dawley rats [1] = experiment: Chronic administration for 3 weeks, fasting blood glucose of rats; format: in vivo, rat; conditions: vs solvent control, listed as leonurine crystal form A
# Protocol: Forty male Sprague-Dawley rats weighed 180 to 220 g were randomly divided into 4 groups (10 rats each group): control group are treated with equal volume of DMSO, and the treatment groups were administered at 30 mg/kg per day, 60 mg/kg per day, and 120 mg/kg per day of leonurine crystal form A respectively, where leonurine crystal form A was dissolved in DMSO at concentrates of 30 mg/ml, 60 mg/ml and 120 mg/ml, and the volume of vehicle administered intragastrically in each rat was 1 ml per kg of body weight. The rats were treated with leonurine crystal form A or DMSO once a day continuously for 3 weeks, and the body weight and fasting blood-glucose were detected at third week. The rats were fasted (allowed water ad libitum) for 12 h before experiment. Fasting blood-glucose and body weight were tested after 1 h of administered drugs. The rats were not given drugs on the next days for one week, and the body weight and fasting blood-glucose were detected at forth week. The data were analyzed by SPSS statistical software (version 11.5), and results were expressed as the mean±standard error of the mean (mean±SEM). Multiple group comparisons were tested by one-way analysis of variance (ANOVA). P<0.05 was considered as statistically significant.
# Sprague-Dawley male rats = experiment: Single dosage acute administration, insulin sensitivity test in rats; format: in vivo; conditions: rat, vs DMSO control
# Protocol: Thirty-two Sprague-Dawley male rats (body weight 180-220 g) were randomly divided into 4 groups, gave control solvent and three different doses of leonurine crystal form A respectively. The control solvent group was given an equal volume of DMSO, and the treatment groups were administered with three doses of 30 mg/kg, 60 mg/kg and 120 mg/kg respectively, 8 rats per group, where the leonurine crystal form A was dissolved in DMSO at concentrations of 30 mg/ml, 60 mg/ml and 120 mg/ml respectively. The volume of solvent obtained per rat is one millilitre per kilogram of body weight. The route of administration is gavage, weighing before gavage, and taking blood from tail vein to measure blood glucose. Each rat was tested for insulin sensitivity 1 hour after administration of drugs or control solvent, the dose of insulin selected was 0.5 units per kilogram of body weight, intraperitoneal injection of insulin, blood glucose was measured before injection and at 15, 30, 60, 90, and 120 minutes after injection. The data were analyzed by SPSS 11.5 statistical software, and the results were expressed as mean ±standard error of the mean (mean±SEM), pairwise comparison between groups was examined by one-way analysis of variance (ANOVA), P<0.05 was considered significant difference between the groups.
# [2] = Accelerated stability test of leonurine crystal forms; format: physicochemical; conditions: for Crystal stability: 70% RH, 10 days
# From the text: In the invention, the dominant medicinal crystal form was also screened by the accelerated stability experimental method, and observed the transformation among the various crystal forms.
# [3] = Hygroscopicity, dynamic vapor sorption (DVS), 0-95% RH; format: physicochemical; conditions: for hygroscopicity (in words) / change of crystal form: range of 0-95% relative humidity
# Protocol: Dynamic vapor sorption (DVS) method, instrument model: SMS DVS Intrinsic, 0˜95% RH, temperature: 25° C.; FTIR method, instrument model: Nicolet 6700, sectral range: 4000˜400 cm^−1, resolution ratio: 4 cm^−1, scanning times: 32, the infrared spectra of the samples were determined by KBr pressed-disk technique method, temperature: 25° C.;
# In this invention, it is named as leonurine crystal form A, which is monohydrate crystal form, square block crystal (as shown in FIG. 13), no crystal transformation before melting, dehydrates at 120˜150° C. and transform into anhydrous crystal form B, and decomposes at about 250° C. […] Under the condition of, in the suspension experiment at 25° C., in methanol, ethanol, isopropanol, acetone, acetonitrile, tetrahydrofuran, nitromethane, ethyl acetate, isopropyl acetate, isoamyl alcohol, methyl tert-butyl ether, toluene, methyl isobutyl ketone, n-hexane, n-heptane, ether, dichloromethane, chloroform, petroleum ether, water and other solvents; and under the condition of, in the suspension experiment at 50° C., in methanol, ethanol, acetone, methyl ethyl ketone, isopropyl acetate, methyl tert-butyl ether, toluene, n-hexane, n-heptane, diethyl ether, chloroform, petroleum ether, water and other solvents; and under most solvent conditions in suspension and volatilization of mixed solvents at 25° C. and 50° C., form A can be obtained. […] In a range of 0˜95% RH, the dehydration and water absorption behavior of the crystal form is very weak.
# Sprague-Dawley rats [4] = experiment: Chronic administration for 3 weeks, glucose tolerance test (OGTT) in rats; format: in vivo; conditions: rat, vs solvent control, listed as leonurine crystal form A
# Protocol: […] male Sprague-Dawley rats weighed 180 to 220 g were randomly divided into 4 groups, and with vehicle or three different dose of leonurine crystal form A treatment respectively: control group are treated with equal volume of DMSO, and treatment groups are treated with 30 mg/kg per day, 60 mg/kg per day, or 120 mg/kg per day of leonurine crystal form A. Leonurine crystal form A was dissolved in DMSO at concentrates of 30 mg/ml, 60 mg/ml and 120 mg/ml, and the volume of vehicle administered intragastrically in each rat was 1 ml per kg of body weight. The rats were treated with leonurine crystal form A or DMSO once a day for 3 weeks. Oral glucose tolerance test (OGTT) was detected at third week, and the rats were fasted 12 h before OGTT experiment. OGTT experiment was performed 1 h after administered of drugs. Blood glucose and body weight were tested before OGTT. OGTT: Rats were given 25% glucose solution (2 g/kg of body weight, 8 ml/kg) by […], and blood glucose concentration was determined from the tail vein at 15, 30, 60 and 120 min. The drug was discontinued for one week after OGTT, and the body weight and fasting blood-glucose were detected at forth week.
# The data were analyzed by SPSS statistical software (version 11.5), and results were expressed as the mean±standard error of the mean (mean±SEM). Multiple group comparisons were tested by one-way analysis of variance (ANOVA). P<0.05 was considered as statistically significant. […] At 15 min time point, the glucose tolerance curve was shifted down. […] Moreover, at 60 min time point, the glucose tolerance curve also was moved down at the dose of 30 mg/kg/d and 120 mg/kg/d.
# rhesus monkey = experiment: Model of rhesus monkey with hyperlipidemia, long-term administration; format: in vivo
# [5] = previous toxicological study; cited from earlier work
# [6] = 40° C., relative humidity 60%-80%, 10-day stability test, listed as leonurine crystal form A
# [7] = listed as leonurine crystal form A
smiles,measurement,setting,value
"COc1cc(C(=O)OCCCCNC(=N)N)cc(OC)c1O [crystal form A, 4-guanidino-1-butyl 4-hydroxy-3,5-dimethoxybenzoate]",fasting blood glucose of rats,"Sprague-Dawley rats [1]; 60 mg/kg/d for 3 weeks, fourth week",significantly reduced; also recorded: decreased fasting blood glucose
same,fasting blood glucose of rats,"Sprague-Dawley rats [1]; 60 mg/kg/d, after 3 weeks of continuous administration",had not statistically difference; also recorded: not statistically significant
same,fasting blood glucose of rats,"Sprague-Dawley rats [1]; 120 mg/kg/d for 3 weeks, fourth week",significantly reduced; also recorded: decreased fasting blood glucose
same,fasting blood glucose of rats,"Sprague-Dawley rats [1]; 120 mg/kg/d, after 3 weeks of continuous administration",significant reduce; also recorded: significantly decreased
same,insulin sensitivity curve (blood glucose after insulin injection),Sprague-Dawley male rats; single gavage 30 mg/kg,basically coincident with the control group
same,insulin sensitivity curve (blood glucose after insulin injection),"Sprague-Dawley male rats; single gavage 60 mg/kg, 60 minute time point, listed as leonurine crystal form A, 60 mg/kg",reached statistical significance; also recorded: decreased significantly
same,insulin sensitivity curve (blood glucose after insulin injection),"Sprague-Dawley male rats; single gavage 120 mg/kg, 60 minute time point",no statistically significant difference was observed
same,Crystal stability,[2]; 40° C.,remain unchanged
same,Crystal stability,"[2]; 40° C., listed as A",stable
same,crystal transformation behavior,[2]; [6],no crystal transformation behavior
same,hygroscopicity (in words),[2]; [6],not obvious
same,stability in accelerating experiments,[2]; 40° C./75% RH,most stable
same,"hygroscopicity, water absorption",[3]; 60% RH,"60% RH, water absorption 0.07%"
same,"hygroscopicity, water absorption",[3]; 80% RH,"80% RH, water absorption 0.12%"
same,hygroscopicity (in words),[3],no or almost no hygroscopicity
same,change of crystal form,[3]; listed as Crystal Form A,didn't change
same,hygroscopicity (in words),[3]; listed as Crystal Form A,no or almost no hygroscopicity
same,change of crystal form,[3]; [7],does not change
same,hygroscopicity (in words),[3]; [7],no or almost no hygroscopicity
same,moisture absorption,[3]; relative humidity from 0 to 95%,about 0.15%
same,glucose tolerance curve (blood glucose),"Sprague-Dawley rats [4]; 30 mg/kg/d for 3 weeks, 15 minute time point, 30 mg/kg/day",reduce the degree of elevation of blood glucose; also recorded: decrease the level of blood glucose
same,glucose tolerance curve (blood glucose),"Sprague-Dawley rats [4]; 30 mg/kg/d for 3 weeks, 60 minute time point, 30 mg/kg/day",reduce the degree of elevation of blood glucose; also recorded: decrease the level of blood glucose
same,glucose tolerance curve (blood glucose),"Sprague-Dawley rats [4]; 120 mg/kg/d for 3 weeks, 60 minute time point, 120 mg/kg/day",reduce the degree of elevation of blood glucose; also recorded: decrease the level of blood glucose
same,low-density lipoprotein (LDL-C),rhesus monkey,decreasing
same,total cholesterol (TC),rhesus monkey,decreasing
same,toxicity,[5],very low
